According to ChEMBL document CHEMBL3301546, “MMV Malaria Box yeast growth screening”:

Legend:
Assay type in all cases: functional
Saccharomyces cerevisiae [1] = test: MMV: Growth assays were conducted using the prototrophic S. cerevisiae strain JHY222. Each MMV compound (0.1 mM) was tested in minimal media containing ethanol and glycerol as carbon sources (Yeast Nitrogen Base, Ethanol, Glycerol; YNBEG). The growth rate in the presence of each MMV compound was calculated as follows: (i) the first 10 OD readings were averaged and subtracted from all OD readings of the corresponding curve to set the baseline of the growth curve to zero, and (ii) the area under the curve (AUC) was then calculated as the sum of all OD readings. […] A relative growth value was calculated as follows: AUC(DRUG) - AUC(DMSO)/AUC(DMSO); where AUC(DMSO) represents growth measured in a DMSO control well that was on the same microtiter plate of the drug-treated culture.
Saccharomyces cerevisiae [2] = test: (§1) MMV: Growth assays were conducted using the prototrophic S. cerevisiae strain JHY222. Each MMV compound (0.1 mM) was tested in rich media containing dextrose as a carbon source (Yeast Extract, Peptone, Dextrose; YPD). The growth rate in the presence of each MMV compound was calculated as follows: (i) the first 10 OD readings were averaged and subtracted from all OD readings of the corresponding curve to set the baseline of the growth curve to zero, and (ii) the area under the curve (AUC) was then calculated as the sum of all OD readings. […] A relative growth value was calculated as follows: AUC(DRUG) - AUC(DMSO)/AUC(DMSO); where AUC(DMSO) represents growth measured in a DMSO control well that was on the same microtiter plate of the drug-treated culture.
Saccharomyces cerevisiae [3] = test: as §1, with “minimal” for “rich”, “Nitrogen Base,” for “Extract, Peptone,”, “YNBD).” for “YPD).”

| SMILES | Relative Growth (Saccharomyces cerevisiae [1]) | Relative Growth (Saccharomyces cerevisiae [2]) | Relative Growth (Saccharomyces cerevisiae [3]) |
| --- | --- | --- | --- |
| CN(C)CCCNc1c2ccccc2nc2ccccc12 | 0.0887 | 0.0036 | -0.0065 |
| CSC1=NC(=Nc2c(C)cccc2C)C2(CCC(C(C)(C)C)CC2)N1c1ccc(Cl)cc1 (stereo not given) | 0.0048 | -0.0962 | 0.0233 |
| Cc1cc(C)cc(Nc2cc(C)nc3nc(C(F)(F)F)nn23)c1 | -0.0322 | -0.0343 | 0.0866 |
| O=C(NCC(c1ccsc1)N1CCCCCC1)c1ccc(C(F)(F)F)cc1 (stereo not given) | 0.0335 | -0.0232 | 0.0719 |
| COc1ccc(-c2cc3c(SCC(=O)Nc4cc(C(F)(F)F)ccc4Cl)nccn3n2)cc1 | -0.1809 | -0.0822 | 0.0829 |
| Cc1ccc(-c2cc3c(SCC(=O)Nc4cc(C(F)(F)F)ccc4Cl)nccn3n2)cc1 | -0.0739 | 0.0079 | 0.117 |
| CCN(CC)CCNc1ncnc2c1[nH]c1ccc(Cl)cc12 | 0.0317 | -0.0494 | 0.0885 |
| CCOC(=O)c1cnc2ccc(CC)cc2c1O | -0.0424 | -0.243 | 0.0544 |
| CCCCCC(=O)N1c2ccccc2N=C2CC(c3ccc(OC)c(OC)c3)CC(O)=C2C1c1ccc(C(F)(F)F)cc1 (stereo not given) | 0.0121 | -0.0291 | 0.1507 |
| COc1ccc(-c2nc(NC(=O)CS(=O)(=O)c3ccc(F)cc3)sc2C)cc1 | 0.1484 | 0.0127 | 0.0372 |
| CCc1c(C)c(=N)c2ccccc2n1C.I | 0.0462 | -0.0391 | 0.0986 |
| COc1cccc(NC(=O)[C@H](C(C)C)n2c(=O)[nH]c3ccccc3c2=O)c1 | 0.0015 | 0.0157 | -0.0427 |
| CCC(c1ccccc1)c1nn2c(-c3cccs3)nnc2s1 (stereo not given) | 0.1287 | -0.0182 | 0.0181 |
| CC(C)(C)c1ccc(O)c(CNC2CCCCC2)c1 | -0.0737 | -0.013 | 0.1031 |
| CC1CN(C(=O)c2sc3ccccc3c2Cl)CC(C)O1 (stereo not given) | -0.1107 | -0.0005 | 0.0985 |
| CN(C)c1ccc(C=Cc2nc(=O)c3ccccc3o2)cc1 | 0.0299 | -0.0054 | -0.0045 |
| COc1ccc(C2=C(c3ccc(OC)cc3)C3(c4ccccc4)C(=O)C2(c2ccccc2)C2C(=O)N(c4ccc(C)cc4)C(=O)C23)cc1 (stereo not given) | -0.0687 | 0.0057 | -0.018 |
| CCC1(C)CC(CCNCc2ccccc2O)(c2ccc(C)cc2)CCO1 (stereo not given) | 0.156 | 0.0044 | 0.0584 |
| OC(CNC1CCCCC1)Cn1c2ccccc2c2ccccc21 (stereo not given) | 0.1093 | -0.0297 | 0.0533 |
| Cc1cc(Nc2ccc(C)c(Cl)c2)n2nc(C(F)(F)F)nc2n1 | -0.6431 | -0.0311 | 0.1169 |
| COc1cccc(C=Cc2nc(=O)c3ccccc3o2)c1OC | -0.4404 | -0.0201 | 0.0576 |
| Fc1ccc2[nH]c3c(NCCCN4CCOCC4)ncnc3c2c1 | 0.0735 | -0.0189 | 0.0125 |

| SMILES | Relative Growth (Saccharomyces cerevisiae [1]) | Relative Growth (Saccharomyces cerevisiae [2]) | Relative Growth (Saccharomyces cerevisiae [3]) |
| --- | --- | --- | --- |
| COc1ccc(C(=O)Nc2nonc2-c2ccc(OC)c(OC)c2)cc1Cl | 0.0586 | -0.0037 | 0.1144 |
| COc1ccc(C=C2SC(=N)N(c3ccccc3OC)C2=O)cc1 | -0.0639 | -0.083 | -0.0085 |
| CC(NCc1ccccc1)c1cc(Cl)ccc1O (stereo not given) |  | -0.0386 | 0.042 |
| COc1ccc(NC(=O)C2c3ccccc3C(=O)N(CC(C)C)C2c2cccs2)cc1Cl (stereo not given) | -0.0036 | -0.1808 | 0.0154 |
| COc1ccc2c(c1)OC(O)(C(F)(F)C(F)(F)F)CC2=O (stereo not given) | -0.103 | 0.0151 | 0.1423 |
| C=CC12CCN(CC1)C(C(O)c1ccnc3ccc(OC)cc13)C2.Cl (stereo not given) | 0.1178 | -0.0044 | 0.1593 |
| Cc1ccc(-c2cc3nc4c(c(O)n3n2)CCCC4)cc1 | -1.0646 | -0.3245 | -1.0172 |
| COc1ccccc1CNC(=O)CCn1c(=O)[nH]c2ccccc2c1=O | 0.058 | -0.0038 | 0.0763 |
| CCCc1cc(O)c2c3c(c(=O)oc2c1)CN(C)CC3 | -0.0215 | -0.0062 | -0.0292 |
| Cc1cc(NC(=O)C2c3ccccc3C(=O)N(CC(C)C)C2c2cccs2)no1 (stereo not given) | -0.0882 | -0.03 | -0.0434 |
| Cl.Oc1ccccc1CNCC12CC3CC(CC(C3)C1)C2 | 0.0858 | -0.0154 | 0.0701 |
| COc1ccccc1CNC(=O)CCn1c(=O)[nH]c2ccsc2c1=O | -0.0445 | -0.0638 | 0.2472 |
| COc1ccc(Br)cc1C1Nc2ccc3ccccc3c2C2=C1C(=O)CC(c1ccccc1)C2 (stereo not given) | -0.105 | -0.0736 | 0.0368 |
| CC1CCN(Cc2ccc(NC(=O)c3cc4ccc5cccnc5c4[nH]3)cc2)CC1 | -0.318 | -0.0895 | 0.121 |
| O=C(Nc1ccsc1C(=O)NC1CCCCC1)c1ccc(F)cc1 |  | -0.9286 | 0.1187 |
| CCOc1ccc(-c2nonc2NC(=O)c2cccc(C)c2)cc1OCC | -0.1269 | 0.0084 | 0.0895 |
| COc1ccc(-c2nc3cc(Cc4ccc5[nH]c(-c6ccc(OC)cc6)nc5c4)ccc3[nH]2)cc1 | 0.0241 | -0.0264 | 0.0862 |
| CCOC(=O)c1ccc2nc(-c3ccccc3)cc(O)c2c1 | 0.0616 | -0.0952 | 0.1214 |
| COc1ccc(C(C)=O)cc1N1C(=O)C2C(C1=O)C1(c3ccccc3)C(=O)C2(c2ccccc2)C(c2ccc(C)cc2)=C1c1ccc(C)cc1 (stereo not given) | 0.0688 | -0.992 | -0.0144 |
| CCCCCCOC(=O)C1=C(C)NC(=O)NC1c1ccccc1F (stereo not given) | -0.2346 | -0.0098 | 0.2134 |
| Cc1ccc(Nc2nc(NCCO)c3ccccc3n2)cc1C | 0.0228 | -0.1142 | 0.0139 |
| COc1ccc(NC(=O)C2c3ccccc3C(=O)N(CC(C)C)C2c2cccs2)cc1 (stereo not given) | -0.1656 | -0.1052 | 0.0442 |
